Results on 24 molecules are retold here after patent US9169254B2, “Spiroimidazolone derivative” (Chugai Seiyaku Kabushiki Kaisha, priority 2009, dated 2015).

The assay addresses T1, human PTH1 receptor (Homo sapiens, UniProt Q03431).
T1 sequence (Q03431 27-593): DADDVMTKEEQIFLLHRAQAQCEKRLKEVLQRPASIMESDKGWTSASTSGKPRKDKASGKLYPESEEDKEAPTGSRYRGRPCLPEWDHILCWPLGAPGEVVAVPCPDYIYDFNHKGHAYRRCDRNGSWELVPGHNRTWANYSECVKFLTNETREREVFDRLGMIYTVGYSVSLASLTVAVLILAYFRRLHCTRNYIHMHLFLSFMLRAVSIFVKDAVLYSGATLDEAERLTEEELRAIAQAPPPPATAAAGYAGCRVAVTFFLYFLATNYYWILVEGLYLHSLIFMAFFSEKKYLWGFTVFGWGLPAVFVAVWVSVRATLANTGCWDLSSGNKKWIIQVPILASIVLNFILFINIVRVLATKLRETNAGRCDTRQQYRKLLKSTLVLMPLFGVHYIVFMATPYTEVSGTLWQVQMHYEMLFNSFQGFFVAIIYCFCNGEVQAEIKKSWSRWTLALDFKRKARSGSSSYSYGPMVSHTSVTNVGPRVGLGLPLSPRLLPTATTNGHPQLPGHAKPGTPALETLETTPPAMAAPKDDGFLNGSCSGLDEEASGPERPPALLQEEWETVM
Description: In vitro cAMP signal activity in HKRK-B7 cells (LLC-PK1 cells overexpressing the human PTH1 receptor). The assay is classed as cell-based. Particulars: HKRK-B7 cells; compound at 1×10^−3 M; cAMP produced as percentage of that produced by hPTH(1-34) at 100 nM.
Take `Cc1cc(C(=O)N2CCC(O)(CF)CC2)cc(C)c1CCS(=O)(=O)N1CCC2(CC1)N=C(C1CCC(CCC(F)(F)F)CC1)NC2=O` (stereo not drawn) [Compound 1381, 8-{2-[4-(4-fluoromethyl-4-hydroxy-piperidine-1-carbonyl)-2,6-dimethyl-phenyl]-ethanesulfonyl}-2-[4-(3,3,3-trifluoro-propyl)-cyclohexyl]-1,3,8-triaza-spiro[4.5]dec-1-en-4-one]: the “cAMP production activity (%)” value is on record as 102%. As for `Cc1cc(CN(CCO)C(=O)OC(C)(C)C)ccc1/C=C/S(=O)(=O)N1CCC2(CC1)N=C(C1CCCCC1)NC2=O` [Compound 708, {4-[(E)-2-(2-Cyclohexyl-4-oxo-1,3,8-triaza-spiro[4.5]dec-1-ene-8-sulfonyl)-vinyl]-3-methyl-benzyl}-(2-hydroxy-ethyl)-carbamic acid tert-butyl ester], the “cAMP production activity (%)” value is reported as 38%.

On to `NCC(=O)N1CCCC(C2=NC3(CCN(S(=O)(=O)c4cccc(Cl)c4)CC3)C(=O)N2)C1` (stereo not drawn) [Compound 442, 2-[1-(2-Amino-acetyl)-piperidin-3-yl]-8-(3-chloro-benzenesulfonyl)-1,3,8-triaza-spiro[4.5]dec-1-en-4-one], for which the “cAMP production activity (%)” value is 2.5%. The value for `Cc1cc(N(C)C(N)=O)cc(C)c1/C=C\S(=O)(=O)N1CCC2(CC1)N=C(CCCCCCCCCF)NC2=O` [Compound 1326, 1-(4-{(Z)-2-[2-(9-fluoro-nonyl)-4-oxo-1,3,8-triaza-spiro[4.5]dec-1-ene-8-sulfonyl]-vinyl}-3,5-dimethyl-phenyl)-1-methyl-urea] was 84%; that for `O=C1NC(C2CCCCC2)=NC12CCN(S(=O)(=O)CCc1cc3cc[nH]c3cc1C(F)(F)F)CC2` [Compound 836, 2-cyclohexyl-8-[2-(6-trifluoromethyl-1H-indol-5-yl)-ethanesulfonyl]-1,3,8-triaza-spiro[4.5]dec-1-en-4-one] was 56%; that for `Cc1cc(N(C)C(N)=O)cc(C)c1CCS(=O)(=O)N1CCC2(CC1)N=C(C1CCCCCC1)NC2=O` [Compound 934, 1-{4-[2-(2-Cycloheptyl-4-oxo-1,3,8-triaza-spiro[4.5]dec-1-ene-8-sulfonyl)-ethyl]-3,5-dimethyl-phenyl}-1-methyl-urea] was 87%. In the case of `Cc1cc(C(=O)N(C)C)ccc1CCS(=O)(=O)N1CCC2(CC1)N=C(c1cc(Cl)cc(C(F)(F)F)c1)NC2=O` [Compound 127, 4-{2-[2-(3-chloro-5-trifluoromethyl-phenyl)-4-oxo-1,3,8-triaza-spiro[4.5]dec-1-ene-8-sulfonyl]-ethyl}-3,N,N-trimethyl-benzamide] it was 72%; in that of `CCCCCC[C@H]1CCCC[C@@H]1C1=NC2(CCN(S(=O)(=O)CCc3c(C)cc(N(C)C(N)=O)cc3C)CC2)C(=O)N1` [Compound 1057, 1-(4-{2-[2-((1S,2S)-2-hexyl-cyclohexyl)-4-oxo-1,3,8-triaza-spiro[4.5]dec-1-ene-8-sulfonyl]-ethyl}-3,5-dimethyl-phenyl)-1-methyl-urea], 100%. The value for `CN(CCO)c1ccc(/C=C/S(=O)(=O)N2CCC3(CC2)N=C(C2CCCCC2)NC3=O)c(C(F)(F)F)c1` [Compound 501, 2-cyclohexyl-8-((E)-2-{4-[(2-hydroxy-ethyl)-methyl-amino]-2-trifluoromethyl-phenyl}-ethenesulfonyl)-1,3,8-triaza-spiro[4.5]dec-1-en-4-one] was 59%; that for `Cc1cc(N2C(=O)NC(C)(C)C2=O)ccc1CCS(=O)(=O)N1CCC2(CC1)N=C(C1CCC(CCC(F)(F)F)CC1)NC2=O` (stereo not drawn) [Compound 864, 5,5-dimethyl-3-[3-methyl-4-(2-{4-oxo-2-[4-(3,3,3-trifluoro-propyl)-cyclohexyl]-1,3,8-triaza-spiro[4.5]dec-1-ene-8-sulfonyl}-ethyl)-phenyl]-imidazolidine-2,4-dione] was 100%; that for `O=C1NC(CCCCCCCCC(F)(F)F)=NC12CCN(S(=O)(=O)/C=C/c1cccc3c1ccn3C[C@H](O)CO)CC2` [Compound 622, 8-{(E)-2-[1-((S)-2,3-Dihydroxy-propyl)-1H-indol-4-yl]-ethenesulfonyl}-2-(9,9,9-trifluoro-nonyl)-1,3,8-triaza-spiro[4.5]dec-1-en-4-one] was 134%. For `O=C1NC(C2CCC(C(F)(F)F)CC2)=NC12CCN(S(=O)(=O)CCc1cccc3c1ccn3C[C@H](O)CO)CC2` (stereo partly drawn) [Compound 322, 8-{2-[1-((S)-2,3-dihydroxy-propyl)-1H-indol-4-yl]-ethanesulfonyl}-2-(4-trifluoromethyl-cyclohexyl)-1,3,8-triaza-spiro[4.5]dec-1-en-4-one], the “cAMP production activity (%)” value is 75%. The value for `Cn1cc(-c2ccccc2CCS(=O)(=O)N2CCC3(CC2)N=C(C2CCCCC2)NC3=O)cn1` [Compound 340, 2-cyclohexyl-8-{2-[2-(1-methyl-1H-pyrazol-4-yl)-phenyl]-ethanesulfonyl}-1,3,8-triaza-spiro[4.5]dec-1-en-4-one] was 67%; that for `Cc1cc(N(CCN(C)C)S(C)(=O)=O)cc(C)c1/C=C/S(=O)(=O)N1CCC2(CC1)N=C(c1cccc(OC(F)(F)F)c1)NC2=O` [Compound 609, N-(2-dimethylamino-ethyl)-N-(3,5-dimethyl-4-{(E)-2-[4-oxo-2-(3-trifluoromethoxy-phenyl)-1,3,8-triaza-spiro[4.5]dec-1-ene-8-sulfonyl]-vinyl}-phenyl)-methane sulfonamide] was 46%. The value for `Cc1cc2ccc1CCS(=O)(=O)N1CCC3(CC1)N=C(NC3=O)c1cc(cc(C(F)(F)F)c1)OCCc1cn(nn1)CCCN(C)C2=O` [Compound 1442] was 9.3%. In the case of `CCOCc1cc(NC(C)=O)ccc1/C=C/S(=O)(=O)N1CCC2(CC1)N=C(C1CCC(C)CC1)NC2=O` (stereo not drawn) [Compound 576, N-(3-ethoxymethyl-4-{(E)-2-[2-(4-methyl-cyclohexyl)-4-oxo-1,3,8-triaza-spiro[4.5]dec-1-ene-8-sulfonyl]-vinyl}-phenyl)-acetamide] it was 95%; in that of `Cc1cc(C(=O)N2CCC(C)(O)CC2)cc(C)c1/C=C/S(=O)(=O)N1CCC2(CC1)N=C(c1ccc(Cl)c(OC(C)(C)C(F)(F)F)c1)NC2=O` [Compound 1210, 2-[4-chloro-3-(2,2,2-trifluoro-1,1-dimethyl-ethoxy)-phenyl]-8-{(E)-2-[4-(4-hydroxy-4-methyl-piperidine-1-carbonyl)-2,6-dimethyl-phenyl]-ethenesulfonyl}-1,3,8-triaza-spiro[4.5]dec-1-en-4-one], 86%; in that of `Cc1cc(N2NCCC2=O)ccc1CCS(=O)(=O)N1CCC2(CC1)N=C([C@H]1CC[C@H](C)CC1)NC2=O` [Compound 834, 2-(4-methyl-cyclohexyl)-8-{2-[2-methyl-4-(5-oxo-pyrazolidin-1-yl)-phenyl]-ethanesulfonyl}-1,3,8-triaza-spiro[4.5]dec-1-en-4-one], 76%.

Consider `Cc1cc(N(C)C(N)=O)cc(C)c1CCS(=O)(=O)N1CCC2(CC1)N=C([C@@H]1C[C@H](C)C[C@H](C)C1)NC2=O` [Compound 1040, 1-(4-{2-[2-((1S,3S,5R)-3,5-dimethyl-cyclohexyl)-4-oxo-1,3,8-triaza-spiro[4.5]dec-1-ene-8-sulfonyl]-ethyl}-3,5-dimethyl-phenyl)-1-methyl-urea], for which the “cAMP production activity (%)” value was determined as 111%.

`O=C(N1CCCCC1)N1CCCC(C2=NC3(CCN(S(=O)(=O)c4cccc(Cl)c4)CC3)C(=O)N2)C1` (stereo not drawn) [Compound 456, 8-(3-Chloro-benzenesulfonyl)-2-[1-(piperidine-1-carbonyl)-piperidin-3-yl]-1,3,8-triaza-spiro[4.5]dec-1-en-4-one]: the “cAMP production activity (%)” value is reported as 28%. The value for `Cc1cc(C(=O)NN)cc(C)c1CCS(=O)(=O)N1CCC2(CC1)N=C(C1CCC(CCC(F)(F)F)CC1)NC2=O` (stereo not drawn) [Compound 1385, 3,5-dimethyl-4-(2-{4-oxo-2-[4-(3,3,3-trifluoro-propyl)-cyclohexyl]-1,3,8-triaza-spiro[4.5]dec-1-ene-8-sulfonyl}-ethyl)-benzoic acid hydrazide] was 92%. In the case of `COCC(=O)N(C)c1ccc(/C=C/S(=O)(=O)N2CCC3(CC2)N=C(c2cccc(OC(F)(F)F)c2)NC3=O)c(C)c1` [Compound 450, 2-Methoxy-N-methyl-N-(3-methyl-4-{(E)-2-[4-oxo-2-(3-trifluoromethoxy-phenyl)-1,3,8-triaza-spiro[4.5]dec-1-ene-8-sulfonyl]-vinyl}-phenyl)-acetamide] it was 56%.

For `Cc1cc(NC[C@H](O)CO)ccc1CCS(=O)(=O)N1CCC2(CC1)N=C(c1ccc(C(F)(F)F)cc1)NC2=O` [Compound 154, 8-{2-[4-((S)-2,3-Dihydroxy-propylamino)-2-methyl-phenyl]-ethanesulfonyl}-2-(4-trifluoromethyl-phenyl)-1,3,8-triaza-spiro[4.5]dec-1-en-4-one], the “cAMP production activity (%)” value was 82%. Consider `Cc1cc(N2CCCCC2=O)cc(C)c1CCS(=O)(=O)N1CCC2(CC1)N=C(C1CCC(C)CC1)NC2=O` (stereo not drawn) [Compound 771, 8-{2-[2,6-dimethyl-4-(2-oxo-piperidin-1-yl)-phenyl]-ethanesulfonyl}-2-(4-methyl-cyclohexyl)-1,3,8-triaza-spiro[4.5]dec-1-en-4-one], for which the “cAMP production activity (%)” value was 80%.
